Like-named read-outs stand apart in the source and are kept apart here.
Tests used:
bovine α-chymotrypsin = target: T1, bovine α-chymotrypsin (Bos taurus, UniProt P00766); assay: Inactivation kinetics of bovine α-chymotrypsin (chromogenic substrate Suc-Ala2-Pro-Phe-pNA); type: biochemical; conditions: 25° C., pH 7.5, N.I. = non-inactivator; for kinact/KI: read-out: Ki/KI or kobs/[I], α-CT
T1 construct: bovine α-chymotrypsin
Procedure: (§1) The inactivating or inhibitory properties of the coumarin derivatives were tested with respect to a certain number of enzymes: human leukocyte elastase, bovine α-chymotrypsin, human thrombin and bovine trypsin. The kinetic measurements were taken at 25° C. in the following buffers: 0.1 M Hepes, 0.5 M NaCl, 0.01% Tween 80, pH 8.0 (human leukocyte elastase); 0.025 M NaH2PO4, 0.05 M KCl, pH 7.5 (α-chymotrypsin); 0.01 M Tris, 0.01 M Hepes, 0.1 M NaCl, 0.1% PEG-6000, pH 7.5 (human thrombin); 0.1 M Tris, 0.01 M CaCl2, pH 7.5 (bovine trypsin). The chromogenic substrates used to determine the activity of the enzymes are: MeOSuc-Ala2-Pro-Val-pNA (human leukocyte elastase); Suc-Ala2-Pro-Phe-pNA (α-chymotrypsin); H-D-Phe-Pip-Arg-pNA (human thrombin); N-benzoyl-Arg-pNA (bovine trypsin) (pNA: para-nitroaniline).
(§2) The interaction of a suicide substrate with a serine protease corresponds to the minimum reaction scheme described in equation 1 in which E represents the enzyme, I represents the inhibitor, E-I represents the acyl-enzyme and E-I′ represents the inactivated enzyme [Silverman R. B., 1988, “Mechanism-based enzyme inactivation: chemistry and enzymology”, volume 1 CRC Press, Boca Raton, Fla.]: [drawing 76]
(§3) When k4 is small compared to k3, equation 1 can be simplified (equation 2, [Daniels et al., 1983, J. Biol. Chem., 258: 15046-15053]): [drawing 77]
(§4) Considering the first instants of the reaction, the system reduces to a simplified equation of the form of equation 2.
(§5) The kinetic constants characterizing the inactivation of the enzymes with the coumarin derivatives were determined using either the conventional sampling method (or batchwise method) or a method placing the inhibitor and the substrate in competition (or continuous method); these methods are described by Pochet et al. [Pochet et al., 1996, J. Med. Chem., 39: 2579-2585].
(§6) The inactivation of serine proteaaes with the coumarin derivatives is thus characterized by the following constants (see Eq. 2):
(§7) KI: apparent dissociation constant of an enzyme-inhibitor complex located upstream of ki
(§8) ki: first-order rate constant for inactivation at infinite inhibitor concentration
(§9) ki/KI: index of the overall inactivating efficacy of the inhibitor.

human leukocyte elastase = target: T2, human leukocyte elastase (Homo sapiens, UniProt P08246); assay: Inactivation kinetics of human leukocyte elastase (chromogenic substrate MeOSuc-Ala2-Pro-Val-pNA); type: biochemical; conditions: 25° C., pH 8.0
T2 sequence (P08246 30-247 limits assumed): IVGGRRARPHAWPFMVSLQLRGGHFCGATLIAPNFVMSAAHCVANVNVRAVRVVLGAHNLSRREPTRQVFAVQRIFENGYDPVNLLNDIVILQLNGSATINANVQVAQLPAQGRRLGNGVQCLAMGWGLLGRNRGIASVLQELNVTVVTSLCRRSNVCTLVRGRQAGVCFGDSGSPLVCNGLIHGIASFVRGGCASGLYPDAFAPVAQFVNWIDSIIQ
Procedure: as §1, §2, §3, §4, §5, §6, §7, §8, §9

human thrombin = target: T3, human thrombin (Homo sapiens, UniProt P00734); assay: Inactivation kinetics of human thrombin (chromogenic substrate H-D-Phe-Pip-Arg-pNA); type: biochemical; conditions: 25° C., pH 7.5, N.I. = non-inactivator; for kinact/KI: read-out: Ki/KI or kobs/[I], Thrombin
T3 construct: human thrombin
Procedure: as §1, §2, §3, §4, §5, §6, §7, §8, §9

bovine trypsin = target: T4, bovine trypsin (Bos taurus, UniProt P00760); assay: Inactivation kinetics of bovine trypsin (chromogenic substrate N-benzoyl-Arg-pNA); type: biochemical; conditions: TABLE 3; 25° C., pH 7.5; N.I. = non-inactivator
T4 sequence (P00760 24-246): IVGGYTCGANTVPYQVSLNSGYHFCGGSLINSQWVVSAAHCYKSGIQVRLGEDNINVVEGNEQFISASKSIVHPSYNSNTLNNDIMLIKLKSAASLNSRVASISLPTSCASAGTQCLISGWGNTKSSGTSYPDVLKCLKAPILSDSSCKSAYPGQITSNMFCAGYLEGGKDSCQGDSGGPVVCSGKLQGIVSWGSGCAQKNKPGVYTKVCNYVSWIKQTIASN
Procedure: as §1, §2, §3, §4, §5, §6, §7, §8, §9

[1] = TABLE 3, no chloromethyl in position 6
[2] = TABLE 3, no chloromethyl in position 6, inactivation phase of transient inactivation, read-out: Ki/KI or kobs/[I], LHE
[3] = TABLE 5, phenyl esters, without 6-chloromethyl: inactivation phase of transient inactivation
[4] = TABLE 5, phenyl esters, inactivation phase, N.I. = non-inactivator, read-out: Ki/KI or kobs/[I], HLE
[5] = TABLE 5, phenyl esters, inactivation phase
[6] = TABLE 1, 2-pyridyl esters, inactivation phase of transient inactivation, read-out: Ki/KI or kobs/[I], LHE
[7] = TABLE 1, 2-pyridyl esters, inactivation phase

SMILES: CC(C)(C)C(=O)OCc1ccc2oc(=O)c(C(=O)Oc3cncc(Cl)c3)cc2c1 [Id8, 5-chloro-3-pyridyl 6-trimethylacetoxymethyl-2-oxo-2H-1-benzopyran-3-carboxylate]
- Ki/KI or kobs/[I], α-CT (bovine α-chymotrypsin; [1]): N.I.^a N.I. N.I. N.I. N.I. N.I. N.I. N.I.
- kinact/KI (human leukocyte elastase; [2]): 95500 M⁻¹ s⁻¹
- Ki/KI or kobs/[I], Thrombin (human thrombin; TABLE 3): N.I. N.I. N.I. N.I. N.I. N.I. N.I. N.I. —
- Ki/KI or kobs/[I], Trypsin (bovine trypsin): N.I. N.I. N.I. N.I. N.I. N.I. N.I. — —

SMILES: O=C(Oc1cncc(Cl)c1)c1cc2cc(Br)ccc2oc1=O [Ig1, 5-chloro-3-pyridyl 6-bromo-2-oxo-2H-1-benzopyran-3-carboxylate]
- Ki/KI or kobs/[I], α-CT (bovine α-chymotrypsin; [1]): # N.I.
- kinact/KI (human leukocyte elastase; [2]): 58000 M⁻¹ s⁻¹

SMILES: COc1cc(Cl)cc(OC(=O)c2cc3cc(CCl)ccc3oc2=O)c1 [Ic″7, 3-chloro-5-methoxyphenyl 6-chloromethyl-2-oxo-2H-1-benzopyran-3-carboxylate]
- kinact/KI (bovine α-chymotrypsin; [3]): 1200 M⁻¹ s⁻¹
- kinact/KI (human leukocyte elastase; [4]): 350 M⁻¹ s⁻¹

SMILES: Cc1ccc2oc(=O)c(C(=O)Oc3cccc(Cl)c3)cc2c1 [Ib1, 3-chlorophenyl 6-methyl-2-oxo-2H-1-benzopyran-3-carboxylate]
- kinact/KI (bovine α-chymotrypsin; [3]): 9400 M⁻¹ s⁻¹
- kinact/KI (human leukocyte elastase; [4]): 1100 M⁻¹ s⁻¹
- melting point: 175 to 176 °C

SMILES: O=C(Oc1cc(Cl)ccc1Cl)c1cc2ccccc2oc1=O [Ia4, 2,5-dichlorophenyl 2-oxo-2H-1-benzopyran-3-carboxylate]
- kinact/KI (human leukocyte elastase; [4]): 5800 M⁻¹ s⁻¹
- Ki/KI or kobs/[I], Thrombin (human thrombin; [5]): N.I.
- melting point: 189 to 192 °C

SMILES: O=C(Oc1cccc(Cl)n1)c1cc2cc(CCl)ccc2oc1=O [Ic′″12, 6-chloro-2-pyridyl 6-chloromethyl-2-oxo-2H-1-benzopyran-3-carboxylate]
- kinact/KI (bovine α-chymotrypsin; TABLE 1, 2-pyridyl esters): 107000 M⁻¹ s⁻¹
- kinact/KI (human leukocyte elastase; [6]): 26000 M⁻¹ s⁻¹
- Ki/KI or kobs/[I], LHE (human leukocyte elastase; TABLE 1, inactivation phase): 26000 M⁻¹ s⁻¹
- kinact/KI (human thrombin; [7]): 7200 M⁻¹ s⁻¹
- Ki/KI or kobs/[I], Thrombin (human thrombin; TABLE 1, inactivation phase): 7200 M⁻¹ s⁻¹
- melting point: 172 to 173 °C

SMILES: O=C(Oc1cc(Cl)cc(Cl)c1)c1cc2cc(CCl)ccc2oc1=O [Ic″6, 3,5-dichlorophenyl 6-chloromethyl-2-oxo-2H-1-benzopyran-3-carboxylate]
- kinact/KI (bovine α-chymotrypsin; [3]): 110000 M⁻¹ s⁻¹
- kinact/KI (human leukocyte elastase; [4]): 4000 M⁻¹ s⁻¹
- Ki/KI or kobs/[I], Thrombin (human thrombin; [5]): N.I.

SMILES: O=C(Sc1cccc(Cl)c1)c1cc2cc(CCl)ccc2oc1=O [III2, S-(3-chlorophenyl) 6-chloromethyl-2-oxo-2H-1-benzopyran-3-carbothioate]
- kinact/KI (bovine α-chymotrypsin; [3]): 730000 M⁻¹ s⁻¹
- kinact/KI (human leukocyte elastase; [4]): < 200 M⁻¹ s⁻¹
- Ki/KI or kobs/[I], Thrombin (human thrombin; [5]): — N.I.
- melting point: 194 to 195 °C

SMILES: O=C(Sc1ccccc1)c1cc2cc(CCl)ccc2oc1=O [III1, S-phenyl 6-chloromethyl-2-oxo-2H-1-benzopyran-3-carbothioate]
- kinact/KI (bovine α-chymotrypsin; [3]): 39000 M⁻¹ s⁻¹
- Ki/KI or kobs/[I], HLE (human leukocyte elastase; TABLE 5, phenyl esters, inactivation phase, N.I. = non-inactivator): N.I.

SMILES: CC(=O)OCc1ccc2oc(=O)c(C(=O)Oc3cc(Cl)ccc3Cl)cc2c1 [Id11, 2,5-dichlorophenyl 6-acetoxymethyl-2-oxo-2H-1-benzopyran-3-carboxylate]
- kinact/KI (human thrombin; [5]): 500 M⁻¹ s⁻¹
- melting point: 168 to 171 °C

SMILES: CC(=O)OCc1ccc2oc(=O)c(C(=O)Oc3cccc(Cl)c3)cc2c1 [Id2, 3-chlorophenyl 6-acetoxymethyl-2-oxo-2H-1-benzopyran-3-carboxylate]
- kinact/KI (bovine α-chymotrypsin; [3]): 20000 M⁻¹ s⁻¹
- kinact/KI (human leukocyte elastase; [4]): 1440 M⁻¹ s⁻¹
- kinact/KI (human thrombin; [5]): 580 M⁻¹ s⁻¹

SMILES: O=C(Oc1cccc(Cl)c1Cl)c1cc2cc(CCl)ccc2oc1=O [Ic″3, 2,3-dichlorophenyl 6-chloromethyl-2-oxo-2H-1-benzopyran-3-carboxylate]
- kinact/KI (bovine α-chymotrypsin; [3]): 1200 M⁻¹ s⁻¹
- kinact/KI (human leukocyte elastase; [4]): < 200 M⁻¹ s⁻¹
- Ki/KI or kobs/[I], Thrombin (human thrombin; [5]): — — — — N.I. N.I.

SMILES: Cl.NCc1ccc2oc(=O)c(C(=O)Oc3cncc(Cl)c3)cc2c1 [If3, 5-chloro-3-pyridyl 6-aminomethyl-2-oxo-2H-1-benzopyran-3-carboxylate hydrochloride]
- Ki/KI or kobs/[I], α-CT (bovine α-chymotrypsin; [1]): N.I.^a N.I. N.I. N.I. N.I. N.I. N.I. N.I.
- Ki/KI or kobs/[I], α-CT (bovine α-chymotrypsin; second table headed TABLE 3): N.I.^a N.I. N.I. N.I. N.I. N.I. N.I. N.I.
- kinact/KI (human leukocyte elastase; [2]): 9100 M⁻¹ s⁻¹
- Ki/KI or kobs/[I], LHE (human leukocyte elastase; TABLE 3, inactivation phase): 9100 M⁻¹ s⁻¹
- Ki/KI or kobs/[I], Thrombin (human thrombin; TABLE 3): N.I. N.I. N.I. N.I. N.I. N.I. N.I. N.I. —
- Ki/KI or kobs/[I], Thrombin (human thrombin; second table headed TABLE 3): N.I. N.I. N.I. N.I. N.I. N.I. N.I. N.I. —
- melting point: 230 °C (dec.)

SMILES: O=C(Oc1c(Cl)cccc1Cl)c1cc2cc(CCl)ccc2oc1=O [Ic″5, 2,6-dichlorophenyl 6-chloromethyl-2-oxo-2H-1-benzopyran-3-carboxylate]
- Ki/KI or kobs/[I], α-CT (bovine α-chymotrypsin; [3]): N.I.
- kinact/KI (human leukocyte elastase; [4]): < 200 M⁻¹ s⁻¹
- Ki/KI or kobs/[I], Thrombin (human thrombin; [5]): — — — — N.I. N.I.

SMILES: O=C(Oc1ccc(Cl)cn1)c1cc2cc(CCl)ccc2oc1=O [Ic′″13, 5-chloro-2-pyridyl 6-chloromethyl-2-oxo-2H-1-benzopyran-3-carboxylate]
- kinact/KI (bovine α-chymotrypsin; TABLE 1, 2-pyridyl esters): ~2500 M⁻¹ s⁻¹
- kinact/KI (human leukocyte elastase; [6]): 110 M⁻¹ s⁻¹
- Ki/KI or kobs/[I], LHE (human leukocyte elastase; TABLE 1, inactivation phase): 110 M⁻¹ s⁻¹
- Ki/KI or kobs/[I], Thrombin (human thrombin; [7]): N.I.
- Ki/KI or kobs/[I], Thrombin (human thrombin; TABLE 1, inactivation phase): N.I.
- melting point: 171 to 172 °C

SMILES: O=C(Oc1cccc(C(F)(F)F)c1)c1cc2cc(CCl)ccc2oc1=O [Ic″2, 3-trifluoromethylphenyl 6-chloromethyl-2-oxo-2H-1-benzopyran-3-carboxylate]
- kinact/KI (bovine α-chymotrypsin; [3]): < 500 M⁻¹ s⁻¹
- kinact/KI (human leukocyte elastase; [4]): 330 M⁻¹ s⁻¹
- melting point: 162 to 163 °C

SMILES: O=C(Oc1ccccc1[N+](=O)[O-])c1cc2cc(CCl)ccc2oc1=O [Ic″1, 2-nitrophenyl 6-chloromethyl-2-oxo-2H-1-benzopyran-3-carboxylate]
- kinact/KI (bovine α-chymotrypsin; [3]): 9300 M⁻¹ s⁻¹
- kinact/KI (human leukocyte elastase; [4]): 1250 M⁻¹ s⁻¹
- melting point: 163 to 164 °C

SMILES: CC(=O)OCc1ccc2oc(=O)c(C(=O)Oc3cc(F)ccc3F)cc2c1 [Id12, 2,5-difluorophenyl 6-acetoxymethyl-2-oxo-2H-1-benzopyran-3-carboxylate]
- kinact/KI (human thrombin; [5]): 150 M⁻¹ s⁻¹
- melting point: 137 to 139 °C

Reference: patent publication US6355658B1, “Coumarin derivatives, methods of preparation and application as medicines” (Centre National de la Recherche Scientifique, priority 1997, dated 2002)
